Molecular target: hFXR (Homo sapiens (Human), UniProt Q96RI1)
Test: In Vitro FXR Assay (TK), luciferase reporter in transfected CV-1 cells
Assay type: cell-based
Settings: TK-ECRE-luc reporter, hFXR/hRXR, 18 hrs, maximum efficacy <25% of Fexaramine control classified as '+'
Experimental: CV-1 cells were seeded at a density of 2,000,000 cells in a T175 flask with DMEM+10% charcoal double-stripped FBS and incubated at 37° C. in 5% CO2 for 18 h (O/N).
After 18 h of incubation, the medium in the T175 flask was changed with fresh DMEM+10% charcoal super-stripped serum. In a polypropylene tube, 2500 μL OptiMEM (Life Technologies, Cat #31985-062) was combined with expression plasmids for hFXR, hRXR, TK-ECRE-luc and pCMX-YFP. The tube was then briefly vortexed and incubated at room temperature for 5 minutes. Transfection reagent (X-tremeGENE HP from Roche, Cat #06 366 236 001) was added to the OptiMEM/plasmid mixture vortexed and incubated at room temperature for 20 minutes. Following incubation, the transfection reagent/DNA mixture complex was added to cells in the T175 flask and the cells were incubated at 37° C. in 5% CO2 for 18 h (O/N).
Compounds were serially diluted in DMSO and added to transfected CV-1 cells. The cells were then incubated for 18 hrs. The next day cells were lysed and examined for luminescence.

Sequence of hFXR (Q96RI1 whole entry): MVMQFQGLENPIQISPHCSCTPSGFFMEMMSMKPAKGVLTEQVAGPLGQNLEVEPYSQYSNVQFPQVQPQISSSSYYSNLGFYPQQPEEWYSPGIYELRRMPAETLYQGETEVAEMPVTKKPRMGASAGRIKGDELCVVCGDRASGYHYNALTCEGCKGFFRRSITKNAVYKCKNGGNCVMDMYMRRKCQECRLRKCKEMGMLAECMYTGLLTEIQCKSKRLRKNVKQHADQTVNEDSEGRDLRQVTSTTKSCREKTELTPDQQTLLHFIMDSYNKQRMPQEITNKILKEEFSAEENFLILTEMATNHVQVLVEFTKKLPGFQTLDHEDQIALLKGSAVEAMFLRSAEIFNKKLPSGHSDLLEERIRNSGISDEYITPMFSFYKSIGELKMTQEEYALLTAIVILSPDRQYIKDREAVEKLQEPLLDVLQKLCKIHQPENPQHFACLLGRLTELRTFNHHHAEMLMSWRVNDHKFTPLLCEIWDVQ
Sequence of hFXR (P19793 whole entry partner): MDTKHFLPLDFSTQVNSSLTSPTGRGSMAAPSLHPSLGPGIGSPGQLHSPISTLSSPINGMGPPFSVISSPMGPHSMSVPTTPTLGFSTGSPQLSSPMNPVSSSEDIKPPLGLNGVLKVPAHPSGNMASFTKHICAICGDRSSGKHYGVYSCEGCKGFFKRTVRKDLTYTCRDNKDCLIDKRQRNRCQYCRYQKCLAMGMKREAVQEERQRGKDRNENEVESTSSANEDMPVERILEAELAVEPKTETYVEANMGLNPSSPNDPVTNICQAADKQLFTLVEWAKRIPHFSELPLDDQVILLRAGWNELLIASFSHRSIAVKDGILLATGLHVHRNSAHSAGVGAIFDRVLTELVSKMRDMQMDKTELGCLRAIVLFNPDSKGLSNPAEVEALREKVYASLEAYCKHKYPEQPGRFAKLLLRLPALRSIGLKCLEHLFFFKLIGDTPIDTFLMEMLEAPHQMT

| EC50 [nM] | Structure (SMILES) |
| --- | --- |
| ≤ 1000 | COCCc1ccc(-c2ccc(CN(C(=O)CC(C)(C)C)c3nccc4cc(C(=O)OC)ccc34)cc2)cc1 [Compound 62, Methyl 1-(N-((4′-(2-methoxyethyl)-[1,1′-biphenyl]-4-yl)methyl)-3,3-dimethylbutanamido)isoquinoline-6-carboxylate] |
| ≤ 1000 | COC(=O)c1ccc2c(N(Cc3ccc(-c4ccc5c(c4)CCN5)cc3)C(=O)CC(C)(C)C)nccc2c1 [Compound 63, Methyl 1-(N-(4-(indolin-5-yl)benzyl)-3,3-dimethylbutanamido)isoquinoline-6-carboxylate] |
| ≤ 1000 | COC(=O)c1ccc2c(N(Cc3ccc(-c4ccc5c(c4)CCN5C)cc3)C(=O)CC(C)(C)C)nccc2c1 [Compound 64, Methyl 1-(3,3-dimethyl-N-(4-(1-methylindolin-5-yl)benzyl)butanamido)isoquinoline-6-carboxylate] |
| ≤ 1000 | COC(=O)c1ccc2c(N(Cc3ccc(-c4ccc(OC)c(Cl)c4)cc3)C(=O)[C@H]3CC[C@H](O)CC3)nccc2c1 [Compound 66, Methyl 1-(trans-N-((3′-chloro-4′-methoxy-[1,1′-biphenyl]-4-yl)methyl)-4-hydroxycyclohexanecarboxamido) isoquinoline-6-carboxylate] |
| 1000 to 10000 | COC(=O)c1ccc2c(N(Cc3ccc(-c4ccc(OC)c(C#N)c4)cc3)C(=O)[C@H]3CC[C@H](O)CC3)nccc2c1 [Compound 67, Methyl 1-(trans-N-((3′-cyano-4′-methoxy-[1,1′-biphenyl]-4-yl)methyl)-4-hydroxycyclohexanecarboxamido) isoquinoline-6-carboxylate] |
| ≤ 1000 | COc1ccc(-c2ccc(CN(C(=O)CC(C)(C)C)c3nccc4cc(C(=O)OC(C)C)ccc34)cc2)cc1C#N [Compound 68, Isopropyl 1-(N-((3′-cyano-4′-methoxy-[1,1′-biphenyl]-4-yl)methyl)-3,3-dimethylbutanamido) isoquinoline-6-carboxylate] |
| ≤ 1000 | COc1ccc(-c2ccc(CN(C(=O)CC(C)(C)C)c3nccc4cc(C(=O)OC(C)C)ccc34)cc2)cc1C [Compound 69, Isopropyl 1-(N-((4′-methoxy-3′-methyl-[1,1′-biphenyl]-4-yl)methyl)-3,3-dimethylbutanamido)isoquinoline-6-carboxylate] |
| ≤ 1000 | COC(=O)c1ccc2c(N(Cc3ccc(-c4ccc(OC)c(C)c4)cc3)C(=O)CC(C)C)nccc2c1 [Compound 70, Methyl 1-(N-((4′-methoxy-3′-methyl-[1,1′-biphenyl]-4-yl)methyl)-3-methylbutanamido)isoquinoline-6-carboxylate] |
| ≤ 1000 | COC(=O)c1ccc2c(N(Cc3ccc(-c4ccc(OC)c(C)c4)cc3)C(=O)C3CCCC3)nccc2c1 [Compound 71, Methyl 1-(N-((4′-methoxy-3′-methyl-[1,1′-biphenyl]-4-yl)methyl)cyclopentanecarboxamido) isoquinoline-6-carboxylate] |
| ≤ 1000 | COC(=O)c1ccc2c(N(Cc3ccc(-c4ccc(OC)c(C)c4)cc3)C(=O)CC3CCCC3)nccc2c1 [Compound 72, Methyl 1-(2-cyclopentyl-N-((4′-methoxy-3′-methyl-[1,1′-biphenyl]-4-yl)methyl)acetamido)isoquinoline-6-carboxylate] |
| ≤ 1000 | COC(=O)c1ccc2c(N(Cc3ccc(-c4ccc(OC)c(C)c4)cc3)C(=O)c3ccccc3)nccc2c1 [Compound 73, Methyl 1-(N-((4′-methoxy-3′-methyl-[1,1′-biphenyl]-4-yl)methyl)benzamido)isoquinoline-6-carboxylate] |
| 1000 to 10000 | COC(=O)c1ccc2c(N(Cc3ccc(-c4ccc(OC)c(C)c4)cc3)C(=O)CC3CCCCC3)nccc2c1 [Compound 74, Methyl 1-(2-cyclohexyl-N-((4′-methoxy-3′-methyl-[1,1′-biphenyl]-4-yl)methyl)acetamido)isoquinoline-6-carboxylate] |

Source: patent US10377717B2, “Farnesoid X receptor agonists and uses thereof” (Metacrine, Inc., priority 2015, dated 2019)
